Source: PubChem BioAssay AID192 (DTP/NCI, 2004)
“And” between values parts separate entries of the source, which are not always exact repeats. Equal values may be shown once. Toxic doses and inconclusive results are not listed.

System: BDF1 mice, B16 melanoma ip, median survival T/C
Experiment: NCI In Vivo Anticancer Drug Screen. Data for tumor model B16 Melanoma (intraperitoneal) in B6D2F1 (BDF1) mice
Settings: endpoint: median survival time, higher = longer survival
Method in brief: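 The ratio T/C compares compound-treated mice with vehicle-treated controls, using survival or tumor size as the endpoint in a transplantable tumor model.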

[1] = dose: 1.0 mg/kg/injection, schedule: Q01DX009 (ip), vehicle: saline with Tween-80
[2] = dose: 2.0 mg/kg/injection, schedule: Q01DX009 (ip), vehicle: saline with Tween-80
[3] = dose: 25.0 mg/kg/injection, schedule: Q01DX009 (ip), vehicle: saline with Tween-80
[4] = dose: 50.0 mg/kg/injection, schedule: Q01DX009 (ip), vehicle: saline with Tween-80
[5] = dose: 100.0 mg/kg/injection, schedule: Q01DX009 (ip), vehicle: saline with Tween-80
[6] = dose: 100.0 mg/kg/injection, schedule: Q04DX003 (ip), vehicle: saline with Tween-80
[7] = dose: 25.0 mg/kg/injection, schedule: Q01DX009 (ip), vehicle: Klucel (hydroxypropylcellulose) (HPC)
[8] = dose: 50.0 mg/kg/injection, schedule: Q01DX009 (ip), vehicle: Klucel (hydroxypropylcellulose) (HPC)
[9] = dose: 12.5 mg/kg/injection, schedule: Q01DX009 (ip), vehicle: saline with Tween-80
[10] = dose: 100.0 mg/kg/injection, schedule: Q01DX009 (ip), vehicle: Klucel (hydroxypropylcellulose) (HPC)
[11] = dose: 200.0 mg/kg/injection, schedule: Q01DX009 (ip), vehicle: Klucel (hydroxypropylcellulose) (HPC)
[12] = dose: 400.0 mg/kg/injection, schedule: Q01DX009 (ip), vehicle: Klucel (hydroxypropylcellulose) (HPC)

O=NN(CCCl)C(=O)NC1CCC(=O)NC1=O (stereo not given)
T/C (dose: 0.09 mg/kg/injection, schedule: Q01DX009 (ip), vehicle: saline): 114 % of control | T/C (dose: 0.18 mg/kg/injection, schedule: Q01DX009 (ip), vehicle: saline): 111 % of control | T/C (dose: 0.35 mg/kg/injection, schedule: Q01DX009 (ip), vehicle: saline): 118 % of control | T/C (dose: 0.7 mg/kg/injection, schedule: Q01DX009 (ip), vehicle: saline): 114 % of control | T/C [1]: 119 % of control | T/C (dose: 1.1 mg/kg/injection, schedule: Q01DX009 (ip), vehicle: saline): 152 % of control | T/C (dose: 1.6 mg/kg/injection, schedule: Q01DX009 (ip), vehicle: saline): 165 % of control | T/C [2]: 161 % of control | T/C (dose: 4.0 mg/kg/injection, schedule: Q01DX009 (ip), vehicle: saline with Tween-80): 193 % of control | T/C (dose: 7.5 mg/kg/injection, schedule: Q01DX001 (ip), vehicle: saline + alcohol): 166 % of control | T/C (dose: 8.0 mg/kg/injection, schedule: Q01DX009 (ip), vehicle: saline with Tween-80): 123 % of control | T/C (dose: 15.0 mg/kg/injection, schedule: Q01DX001 (ip), vehicle: saline + alcohol): 245 % of control | T/C (dose: 16.0 mg/kg/injection, schedule: Q01DX009 (ip), vehicle: saline with Tween-80): 93 % of control

O=C(CCCCl)CC(O)(C(F)(F)Cl)C(F)(F)Cl
T/C [3]: 114 % of control | T/C (dose: 25.0 mg/kg/injection, schedule: Q04DX003 (ip), vehicle: saline with Tween-80): 97 % of control | T/C [4]: 114 % of control | T/C (dose: 50.0 mg/kg/injection, schedule: Q04DX003 (ip), vehicle: saline with Tween-80): 102 % of control | T/C [5]: 117 % of control | T/C [6]: 105 % of control

N=C(N)SCc1ccc(CSC(=N)N)s1
T/C (dose: 7.5 mg/kg/injection, schedule: Q01DX009 (ip), vehicle: saline): 101 % of control | T/C (dose: 15.0 mg/kg/injection, schedule: Q01DX009 (ip), vehicle: saline): 99 % of control | T/C (dose: 30.0 mg/kg/injection, schedule: Q01DX009 (ip), vehicle: saline): 104 % of control

NC(Cc1c[nH]c2ccc(N(CCCl)CCCl)cc12)C(=O)O (stereo not given)
T/C (dose: 0.25 mg/kg/injection, schedule: Q01DX009 (ip), vehicle: saline with Tween-80): 159 % of control | T/C (dose: 0.5 mg/kg/injection, schedule: Q01DX009 (ip), vehicle: saline with Tween-80): 163 % of control and 185 % of control | T/C [1]: 180 % of control and 226 % of control | T/C [2]: 184 % of control

NOCc1cccc(CON)c1
T/C (dose: 12.5 mg/kg/injection, schedule: Q04DX003 (ip), vehicle: saline): 123 % of control | T/C (dose: 25.0 mg/kg/injection, schedule: Q04DX003 (ip), vehicle: saline): 118 % of control | T/C (dose: 50.0 mg/kg/injection, schedule: Q04DX003 (ip), vehicle: saline): 115 % of control

CC(=O)N\C(N)=N/N=C\C(C)=N/N=C(\N)NC(C)=O
T/C [4]: 108 % of control | T/C [5]: 99 % of control | T/C (dose: 200.0 mg/kg/injection, schedule: Q01DX009 (ip), vehicle: saline with Tween-80): 94 % of control

CC(=O)[C@H]1CC[C@H]2[C@@H]3C[C@H](F)C4=CC(=O)CC[C@]4(C)[C@@]3(F)[C@@H](O)C[C@]12C
T/C (dose: 12.5 mg/kg/injection, schedule: Q01DX009 (ip), vehicle: Klucel (hydroxypropylcellulose) (HPC)): 95 % of control | T/C [7]: 97 % of control | T/C [8]: 104 % of control | T/C [6]: 102 % of control | T/C (dose: 200.0 mg/kg/injection, schedule: Q04DX003 (ip), vehicle: saline with Tween-80): 110 % of control | T/C (dose: 400.0 mg/kg/injection, schedule: Q04DX003 (ip), vehicle: saline with Tween-80): 110 % of control

Cc1cc(C)c(C(Cl)(Cl)Cl)c(C)c1Cl
T/C (dose: 1.56 mg/kg/injection, schedule: Q01DX009 (ip), vehicle: saline with Tween-80): 93 % of control | T/C (dose: 3.13 mg/kg/injection, schedule: Q01DX009 (ip), vehicle: saline with Tween-80): 90 % of control | T/C (dose: 6.25 mg/kg/injection, schedule: Q01DX009 (ip), vehicle: saline with Tween-80): 99 % of control | T/C [9]: 103 % of control

CCOC(=O)c1cncc(C(=O)OCC)c1
T/C [10]: 107 % of control | T/C [11]: 113 % of control | T/C [12]: 106 % of control

CC(C)C(=O)[O][Sn]([c]1ccccc1)([c]1ccccc1)[c]1ccccc1
T/C (dose: 3.0 mg/kg/injection, schedule: Q01DX009 (ip), vehicle: saline with Tween-80): 108 % of control | T/C (dose: 6.0 mg/kg/injection, schedule: Q01DX009 (ip), vehicle: saline with Tween-80): 105 % of control | T/C (dose: 12.0 mg/kg/injection, schedule: Q01DX009 (ip), vehicle: saline with Tween-80): 124 % of control | T/C [9]: 100 % of control

CN1C2C=C(c3ccccc3)C(Br)C1CC2 (stereo not given)
T/C (dose: 20.0 mg/kg/injection, schedule: Q01DX009 (ip), vehicle: saline with Tween-80): 98 % of control | T/C (dose: 20.0 mg/kg/injection, schedule: Q04DX003 (ip), vehicle: saline with Tween-80): 100 % of control | T/C (dose: 40.0 mg/kg/injection, schedule: Q01DX009 (ip), vehicle: saline with Tween-80): 91 % of control | T/C (dose: 40.0 mg/kg/injection, schedule: Q04DX003 (ip), vehicle: saline with Tween-80): 104 % of control | T/C (dose: 80.0 mg/kg/injection, schedule: Q04DX003 (ip), vehicle: saline with Tween-80): 88 % of control

Cc1nnc(NC(=O)CCl)s1
T/C [3]: 97 % of control | T/C [4]: 105 % of control | T/C [5]: 97 % of control

CCCCCCN(CCCCCC)CC(O)c1ccc2c3c(cccc13)CC2 (stereo not given)
T/C [8]: 105 % of control | T/C [10]: 98 % of control | T/C [11]: 101 % of control

C[n+]1c2ccccc2c(Nc2ccc(NS(=O)(=O)CCCCN=C(N)N)cc2)c2ccc(N)cc21
T/C (dose: 0.75 mg/kg/injection, schedule: Q01DX009 (ip), vehicle: water): 114 % of control | T/C (dose: 3.0 mg/kg/injection, schedule: Q01DX009 (ip), vehicle: Klucel (hydroxypropylcellulose) (HPC)): 170 % of control | T/C (dose: 3.0 mg/kg/injection, schedule: Q01DX009 (ip), vehicle: water): 171 % of control | T/C (dose: 6.0 mg/kg/injection, schedule: Q01DX009 (ip), vehicle: Klucel (hydroxypropylcellulose) (HPC)): 159 % of control | T/C (dose: 6.0 mg/kg/injection, schedule: Q01DX009 (ip), vehicle: water): 168 % of control and 176 % of control | T/C (dose: 12.0 mg/kg/injection, schedule: Q01DX009 (ip), vehicle: water): 184 % of control and 188 % of control | T/C (dose: 12.5 mg/kg/injection, schedule: Q04DX003 (ip), vehicle: water): 151 % of control | T/C (dose: 25.0 mg/kg/injection, schedule: Q04DX003 (ip), vehicle: water): 171 % of control

CCCCCCCCCCCCCCCC[N+]1(C)CCN(SN2CC[N+](C)(CCCCCCCCCCCCCCCC)CC2)CC1
T/C (dose: 1.56 mg/kg/injection, schedule: Q01DX009 (ip), vehicle: saline): 93 % of control | T/C (dose: 3.12 mg/kg/injection, schedule: Q01DX009 (ip), vehicle: saline): 89 % of control | T/C (dose: 6.25 mg/kg/injection, schedule: Q01DX009 (ip), vehicle: saline): 87 % of control and 89 % of control

CCC(=O)NC1=C(N2CC2C)C(=O)C(NC(=O)CC)=C(N2CC2C)C1=O (stereo not given)
T/C (dose: 0.39 mg/kg/injection, schedule: Q01DX009 (ip), vehicle: Klucel (hydroxypropylcellulose) (HPC)): 119 % of control | T/C (dose: 0.78 mg/kg/injection, schedule: Q01DX009 (ip), vehicle: Klucel (hydroxypropylcellulose) (HPC)): 95 % of control | T/C (dose: 1.56 mg/kg/injection, schedule: Q01DX009 (ip), vehicle: Klucel (hydroxypropylcellulose) (HPC)): 111 % of control | T/C (dose: 3.12 mg/kg/injection, schedule: Q01DX009 (ip), vehicle: Klucel (hydroxypropylcellulose) (HPC)): 102 % of control | T/C (dose: 6.25 mg/kg/injection, schedule: Q01DX009 (ip), vehicle: Klucel (hydroxypropylcellulose) (HPC)): 123 % of control

N#CCCN(CCC#N)c1ccc(C=O)cc1
T/C [10]: 104 % of control | T/C [11]: 98 % of control | T/C [12]: 102 % of control

CC(=O)NC(C=O)C(O)C(O)C(O)C(=O)O (stereo not given)
T/C [7]: 101 % of control | T/C [8]: 100 % of control | T/C [10]: 92 % of control

Cc1c(N=CN(C)C)c(=O)n(-c2ccccc2)n1C
T/C (dose: 97.0 mg/kg/injection, schedule: Q04DX003 (ip), vehicle: Klucel (hydroxypropylcellulose) (HPC)): 97 % of control | T/C (dose: 187.5 mg/kg/injection, schedule: Q04DX003 (ip), vehicle: Klucel (hydroxypropylcellulose) (HPC)): 105 % of control | T/C (dose: 375.0 mg/kg/injection, schedule: Q04DX003 (ip), vehicle: Klucel (hydroxypropylcellulose) (HPC)): 87 % of control
